Compound	melting point
Cc1noc(C)c1COc1ccc(C(=O)O)c(O)c1	201 to 203 °C
Cc1[nH]c(-c2ccccc2)c2c1C(c1ccccc1)=NCC(=O)N2	310 to 312 °C
N#Cc1cccc(CSc2nnc(-c3ccc4[nH]ncc4c3)o2)c1	172 to 173 °C
OCC1Cc2sccc2CN1 (racemic)	110 °C
COc1cc(COc2nn(Cc3ccccc3)cc2CO)ccc1OCc1nc(-c2ccco2)oc1C	104 to 105 °C
O=C1OC(=O)c2cc(N3C(=O)CCCC3=O)ccc21	220 to 222 °C
CC(C)c1cc(Oc2ccc(Cl)cc2)nc(C(C)C)c1N	86 to 88 °C
O=C1NC(=O)C(Cc2ccc(OCc3cccc(-c4ccccc4)c3)cc2)S1 (stereo not given)	109 to 111 °C
O=c1oc2ccccc2c2c1-c1ccccc1OC2	202 °C
CS(=O)(=O)c1ccc(-c2cnc(-c3ccc(F)cc3)s2)s1	183 to 184 °C
CNC(C)=C(C(=O)OC)C(=O)c1ccccc1	75 to 77 °C
C#Cc1sc(C2=NOC(c3cc(Cl)cc(Cl)c3)(C(F)(F)F)C2)cc1C (stereo not given)	105 to 107 °C
C=CC(=O)Nc1csc(Br)n1	152 to 154 °C
CC(=O)N(O)C(C)c1ccc(-c2ccc(OCc3nc4ccccc4s3)cc2)cc1 (stereo not given)	197 to 199 °C
CN(C)C1(c2cccc(F)c2)CCC(=CC(=O)NCCCc2ccccc2)CC1 (stereo not given)	129 to 131 °C
Cc1ccc(C(O)CN2CCNC2=S)cc1 (stereo not given)	123 °C
O=c1c2c[nH]c3ccncc3c-2nn1-c1ccccc1	334 to 337 °C
N#Cc1cccc2c1COc1ccc(OCc3ccc4ccc(Cl)cc4n3)cc1C2SCCC(=O)O (stereo not given)	193 to 195 °C
N#Cc1nnc2n1-c1ccc(Cl)cc1C(c1ccccc1)=NC2	191 to 192 °C

Compound	melting point
NS(=O)(=O)c1ccc(NC(=O)CNc2ccccc2)cc1C(F)(F)F	172 °C
C(#Cc1cccc(-c2cnccn2)c1)c1ccncc1	94 to 95 °C
COc1cc(C#N)c(N=C(C)N2CCc3cc(OC)c(OCc4ccccc4)cc3C2)cc1OC	72 to 73 °C
CC(Cc1ccc(OCCO)cc1)NCC(O)c1ccccc1F (stereo not given)	80 to 95 °C
CCCc1c(OCCCOc2ccc(NC(=O)c3nnn[nH]3)cc2)ccc(C(C)=O)c1O	200 to 202 °C
FC(F)(F)c1ccc(-c2ncc(CCl)s2)cc1	55 to 57 °C
NC(=O)CCCC1(c2ccccc2)CC(O)=C(SCc2ccccc2)C(=O)O1 (stereo not given)	47.5 to 53 °C
Cc1csc2[nH]c(=O)oc(=O)c12	220 °C
Cc1ccc(OCC2=NCCN2)c(C)c1NS(C)(=O)=O	216 to 217 °C
CS(=O)(=O)c1ccc(-c2cnn(-c3cccc(S(C)(=O)=O)c3)c(=O)c2-c2ccc(F)cc2)cc1	141 to 142 °C
CCCc1oc(C)cc(=O)c1C(=O)Nc1ccccc1	133 to 134 °C
CCCc1c(OCCOCCOc2ccc3ccc(OCC(=O)O)cc3c2C(C)=O)ccc(C(C)=O)c1O	121 to 122 °C
Cc1ncoc1-c1nc(-c2c(F)cccc2F)nn1C	113 to 115 °C
c1csc(-c2nc(COc3ccc(CCCCn4ccnc4)cc3)co2)c1	106 to 107 °C
Cc1c(C=O)c2cnnc(OCc3ccc(F)cc3)c2n1C[C@H]1C[C@@H]1C	138 to 140 °C
Cc1cc(N)ccc1-c1ccc(-c2ccc(N)cc2C)o1	174 to 176 °C
O=c1[nH]c2ccccc2n1CCN1CCN(C(c2ccccc2)c2ccccc2)CC1	218 °C
CC(c1ccc(N)cc1)n1ccnc1 (stereo not given)	130 °C
COC(=O)C1=C(C)NC(C)=C(C(=O)OC(C)(C)C)C1c1cccc(N)c1 (stereo not given)	85 to 90 °C

Compound	melting point
CON(C)C(=O)c1ccc(-n2ccnc2)nc1	69 to 70 °C
CC(=O)NCc1cccc(-c2csc(N=C(N)N)n2)n1	198 to 200 °C
CCCc1nc2c(N)nc3cccnc3c2n1CC1(O)CC1	199 to 200 °C
CC(=C1SC(=O)NC1=O)c1ccc(OCCCOc2c(-c3ccc(F)cc3)n(C)c3ccccc3c2=O)cc1	262 to 264 °C
O=C(NC1CCCCC1)NS(=O)(=O)c1cnccc1NC1CCCCCC1	165 to 169 °C
CC1=C(c2ccccc2)C(=O)c2ccccc2C1=O	235 to 236 °C
COc1c(-n2cccc2)cc(CC(C#N)=CNc2ccccc2)cc1-n1cccc1	152 °C
CCCCCC1(C)OCc2c1cnc(C)c2OCC(=O)O (stereo not given)	211 °C
O=C1COc2ccc(C3=Nc4ccccc4SC3c3ccccc3)cc2N1 (stereo not given)	215 to 217 °C
CN(C)C(=O)C1(CCC#N)c2ccccc2-c2ccccc21	109 to 110 °C
CCOCc1nc2c(N)nc3ccc(O)cc3c2n1CCCCNC(=O)Nc1ccccc1	218 to 221 °C
COC(=O)CSCC(=O)c1ccc2[nH]c(=O)[nH]c2c1	177 to 178 °C
CCC12CCC3C(=CCC4(C)C(O)CCC34)C1(C)CCC(O)C2 (stereo not given)	165 °C
O=C(O)Cc1ccccc1OCCn1ccnc1	146 to 147 °C
CCOCc1nc2c(N)nc(C)c(C)c2n1CCCC(N)=O	199 to 200 °C
C=C(c1cn(-c2c(Cl)cc(C(F)(F)F)cc2Cl)nc1C#N)C(F)(F)C(F)(F)F	107 to 108 °C
CNC(=S)NCCSCc1cncs1	86 to 88 °C
CCCCC(Cc1ccc(OCc2ccccc2)cc1)(C(=O)OCC)C(=O)OCC	73 °C
CCn1c(Cl)nc2cc(C(F)(F)F)c(Cl)c(N)c21	134 to 142 °C

Next, values leading:

melting point	Compound
210 to 217 °C	Cc1cc(C)n(-c2nc(Nc3ccccc3Cl)c3ccccc3n2)n1
123 to 128 °C	S=C(NCc1ccccc1Cl)N1CCc2c([nH]c3ccccc23)C1c1ccc2c(c1)OCO2 (stereo not given)
129 to 130 °C	COC(=O)c1cc2ccc(OCc3ccccc3)cc2oc1=O
257 to 260 °C	O=C1Cc2c(cc(Br)c3ccccc23)C(c2ccccc2F)N1 (stereo not given)
116 °C	CC1CCN(c2ccc([N+](=O)[O-])cc2C(=O)c2ccc(Cl)c(Cl)c2)CC1
211 to 212 °C	O=C(Nc1ccc2nc(CN3CCOCC3)ccc2c1)c1ccc(-c2ccc(F)cc2)cc1
150 to 151 °C	COC(=O)C(=CNC1CC1)C(=O)c1cc(F)c(Cl)cc1Cl
122 to 124 °C	O=C(CN1C(=O)CSC1=O)c1ccc(Cl)cc1
163 °C	COc1cc(CNC(=O)c2ccc(Cl)cc2OCC(=O)O)cc(OC)c1
165 °C	CCCC(=O)N1CCC(C(=O)OC2c3ccccc3C(=O)N2c2ccc3ccc(Cl)nc3n2)CC1 (stereo not given)
221 to 223 °C	COC(=O)C1=C(C)NC(C)=C(P(=O)(OC)OC)C1c1cccc([N+](=O)[O-])c1 (stereo not given)
154 to 155 °C	Cc1cc(-c2ncn(Cc3ccc(F)cc3)n2)sc1C(=O)NCc1cccnc1
114 to 115 °C	Clc1cccc(N2CCN(Cc3ccc4ccccc4c3)CC2)c1
150 °C	CC(CCc1ccc(Cl)cc1)(Cn1ccnc1)Sc1cc(Cl)ccc1Cl (stereo not given)
280 °C	Cn1c2ccc(Cl)cc2c(=O)n2nc(C(=O)O)cc12
101 to 102 °C	COc1ccc(CC(=O)c2ccc(OC)nc2)cc1
80 to 83 °C	O=C(O)Cc1cc(F)ccc1Sc1ccccc1
215 to 217 °C	CC1CC(=O)NN=C1c1ccc(NC(=O)CCBr)cc1 (stereo not given)
172 to 173 °C	COC(=O)C1=C(C)NC(=S)N(C(=O)OC)C1c1cccc([N+](=O)[O-])c1 (stereo not given)
249 to 251 °C	O=c1ccc(-c2ccc(Cl)c(C(F)(F)F)c2)n[nH]1
164 to 166 °C	O=C(CCCCc1ncc[nH]1)NNC(=O)N1Cc2ccccc2Oc2ccc(Cl)cc21
195 to 199 °C	COC(=O)N(C)c1cccc(-c2ccc3nncn3n2)c1

melting point	Compound
234 to 235 °C	CCNC(=O)N1CCc2cc(S(=O)(=O)n3cc(-c4ccccc4)[nH]c3=O)ccc21
120 °C	CNc1cc(Cl)cc(Cl)c1[N+](=O)[O-]
163 to 164 °C	CC1CC(=O)N(c2ccc(Cl)cc2)C(=O)C1
173 to 175 °C	Cc1cc(=O)c2ccc(OCCCN3CCC(NC(=O)c4ccccc4)CC3)cc2o1
105 to 107 °C	CS(=O)CC1=C(c2ccccc2)C(=O)N(C(C)(C)C(=O)Nc2cc(F)ccc2F)CO1 (stereo not given)
115 to 118 °C	C[C@H](O)[C@H]1C(=O)N2C(C(=O)OCc3ccc([N+](=O)[O-])cc3)=C(SCCNC(=O)COc3ccccc3)C[C@H]12
163 to 167 °C	O=S(=O)(c1ccccc1)n1ccc2c(Cl)ncnc21
154 to 157 °C	CCCCc1nc(Cl)c(CC(=O)OC)n1Cc1ccc(NS(=O)(=O)C(F)(F)F)cc1
191 to 192 °C	CC(C)CNS(=O)(=O)c1ccc2c(c1)C=C(C(=O)O)C(C(F)(F)F)O2 (stereo not given)
243 to 245 °C	COCCOc1ccc(/C=C/C(=O)O)c(NC(=O)c2ccc(Cl)cc2Cl)c1
259 °C	COc1ccc(C(=O)C2=C(O)C(=O)N(c3ccc(C)nn3)C2c2ccc(OC)cc2)cc1 (stereo not given)
81 to 83 °C	C[C@@H]1CN(Cc2ccccc2)C[C@H]1C(=O)NC1CC1 (relative stereo)
122 to 123 °C	COCOc1ccc(CCCOc2nn(C)cc2CC(=O)O)c(Oc2ncc(C(F)(F)F)cc2Cl)c1
119 to 120 °C	COc1ccc2[nH]cc(CC(=O)N3CCN(c4ccc(N)cc4)CC3)c2c1
88 °C	O=C1c2ccc(SCc3ccccc3)cc2CC1Br (stereo not given)
168 to 170 °C	CN(C)c1ccc(CCc2nc3sc4c(n3c2CO)CCCCC4)cc1
192 to 193 °C	COC(=O)Nc1cc(C(C)(C)C)cc(NC(=O)Nc2ccc(-c3ccc(CN4CCOCC4)nc3)c3ccccc23)c1OC
159 to 161 °C	O=C(SCCCC(=O)N1CCC[C@H]1C(=O)O)c1ccccc1
176 to 178 °C	COc1ccc(-c2nc(C(=O)N3CCN(C(C)=O)CC3)sc2-c2ccc(OC)cc2)cc1
233 to 235 °C	CCOc1ccc(-c2ccc3c(c2)C=C(C(=O)Nc2ccc(CN(C)C4CCOCC4)cc2)CCS3(=O)=O)cc1F
134 to 136 °C	COc1c(-c2cc3c(s2)CCCC3N=[N+]=[N-])ccc2c(=O)c(C(=O)O)cn(C3CC3)c12 (stereo not given)

Reference: a melting point compilation (Tetko et al.; mined from patent text by program, amines drawn as free bases though some values may be those of a salt)
